Drawing on patent US5177085A, “Dihydro-isoquinoline derivatives, processes for their production, pharmaceutical compositions containing them, and their use in treating asthma” (Sandoz Ltd., priority 1990, dated 1993), this text covers ED50 and IC50 for three molecules.

Test [1] has as its system PAF-induced airways hyperreactivity in guinea-pigs. The test is described as follows: Suppression of airways hyperreactivity in PAF-treated animals (Example B). The format is in vivo. Conditions: Cavia porcellus, iv; headed Example B (PAF-treated guinea-pigs); i.v.; pure or substantially pure [3S] enantiomer for Example 1; read-out: ID50 (dose required to increase relaxation by 50%). As for the experimental part: Guinea pigs (Dunkin-Hartley, male, 400-600g) are anesthetized with phenobarbital (100-mg/kg i.p.) and pentobarbital (30 mg/kg i.p.) and paralyzed with gallamine (10 mg/kg i.m.). Animals are ventilated via a tracheal cannula (10 ml/kg, 1 Hz) with a mixture of air and oxygen (1:1 v/v). Blood pressure and heart rate are recorded at the carotid artery. Ventilation is monitored by a Fleisch flow transducer in line with the inspiratory circuit. When making measurements of flow, coincident pressure changes in the thorax are monitored directly via an intrathoracic trochar, permitting display of differential pressure relative to the trachea. From this information in relation to flow and differential pressure, resistance [R1 ] and compliance [Ddyn ] are calculated using a digital respiratory analyzer for each respiratory cycle.
Guinea-pigs are anesthetized and prepared for recording of lung function as described under Example A.2. above. […] Following infusion of PAF (platelet activating factor) over 1 hr.

For test [2], the system named is guinea-pig tracheal ring preparations. The test is described as follows: Relaxation of guinea-pig tracheal smooth muscle in vitro (Example A.1.a). The format is cell-based, Guinea-pig (Dunkin-Hartley). As to conditions: Cavia porcellus; guinea-pig tracheal rings, spontaneous tone, 37° C., cumulative; pure or substantially pure [3S] enantiomer for Example 1; read-out: IC50 (concentration required to increase relaxation by 50%). As to the method: (§1) Guinea-pigs (Dunkin-Hartley, 350-500gm) are killed with Pentothal (100mg/kg i.p.). The trachea is dissected and a section 2-3cm in length excised. The trachea is transected in the transverse plane at alternate cartilage plates so as to give rings of tissue 3-5mm in depth. The proximal and distal rings are discarded. Individual rings are mounted vertically on stainless steel supports, one of which is fixed at the base of an organ bathm the other being attached to an isometric transducer. The rings are bathed in Krebs solution composition mM: NaHCo3 25, NaCl 113, KCl 4.7, MgSO4.7H2 O 1.2, KH2 PO4 1.2, CaCl2 2.5, Glucose 11.7) at 37° C. and gassed with O2 /CO2 (95:5,v/v). Rings prepared in this manner, preloaded with 1 g, generate spontaneous tone and, after a period of equilibration (45-60 min.), relax consistently on addition of spasmolytic drugs. To ascertain spasmolytic activity, test substances are dissolved in physiological saline and added in increasign quantities to the organ bath at 5 min. intervals to provide a cumulative concentration-effect curve.

Test [3] concerns human bronchus ring preparations. The experiment in a line: Relaxation of human bronchus in vitro (Example A.1.b). The format is cell-based. Conditions: human bronchus rings; pure or substantially pure [3S] enantiomer for Example 1. As for the experimental part: as §1
The test is performed analogously to 1. a above but employing rings of human bronchus dissected from lung that has been resected for carcinoma. Dissected material is used immediately or first immersed in total calf serum containing DMSO ([…]), slowly frozen to -70° C. and stored in liquid N2 at -190° C. […]

Consider `COc1cc(OC)cc(C2=N[C@H](CO)Cc3cc(OC)c(OC)cc32)c1` [Example 1, [3S] 3,4-dihydro-6,7-dimethoxy-1-(3,5-dimethoxyphenyl)-3-hydroxymethyl-isoquinoline], for which the ED50 in test [1] was ~0.05 mg/kg. Also, the IC50 in test [2] amounted to 0.18 µM; in test [3], 1.9 µM.

Regarding `Cn1c(=O)c2[nH]cnc2n(C)c1=O` [aminophylline], the IC50 in test [2] was determined as 130 µM; in test [3] it was 158 µM.

As for `Cn1c(=O)c2[nH]cnc2n(C)c1=O` [theophyline], the ED50 in test [1] is 3 mg/kg.
